Test systems include DLD-1 colon; MALME-3M melanoma; OVCAR-4 ovarian; HL-60(TB) leukemia; SK-MEL-28 melanoma; OVCAR-8 ovarian; LXFL 529 NSCLC; UACC-257 melanoma; SK-OV-3 ovarian; T-47D breast.
Assay in all cases: inhibition of tumour cell growth, NCI panel, 48 h

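Results reflect a 48-hour exposure of cells in 96-well plates to compound at five concentrations. GI50 = concentration required for 50% inhibition of growth. TGI denotes the concentration required for complete inhibition of growth.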 A value given as a limit tells only on which side of the number the result lay.

In the case of `Cc1cccc(C)c1NC(=O)C1C(=O)N(c2c(C)cccc2C)C(=O)/C1=N\N` (stereo not given), the TGI in the experiment with DLD-1 colon, with MALME-3M melanoma, in the experiment with OVCAR-4 ovarian, in the experiment with HL-60(TB) leukemia, in the experiment with SK-MEL-28 melanoma and in the experiment with OVCAR-8 ovarian was above 100 µM throughout. For the same molecule, the TGI in the experiment with LXFL 529 NSCLC, in the experiment with UACC-257 melanoma and in the experiment with SK-OV-3 ovarian was above 100 µM in each case.

For the molecule `CSc1nc(NC2OC(COC(C)=O)C(OC(C)=O)C(OC(C)=O)C2OC(C)=O)c2c(n1)OCC2=O` (stereo not given), the TGI in the experiment on DLD-1 colon, in the experiment with MALME-3M melanoma, with OVCAR-4 ovarian, in the experiment with HL-60(TB) leukemia, in the experiment on SK-MEL-28 melanoma and with OVCAR-8 ovarian was above 100 µM throughout. Besides, the TGI in the experiment with LXFL 529 NSCLC, with UACC-257 melanoma and with SK-OV-3 ovarian was above 100 µM in each case.

As for `Cn1cnc([N+](=O)[O-])c1Sc1nccn1-c1cccc2ccccc12`, the TGI was determined as 98.5 µM in the experiment on DLD-1 colon; 42.2 µM in the experiment on MALME-3M melanoma; 95.3 µM in the experiment on OVCAR-4 ovarian; 67.8 µM in the experiment with SK-MEL-28 melanoma; 58.8 µM in the experiment on OVCAR-8 ovarian; 99.4 µM in the experiment with LXFL 529 NSCLC. The TGI with UACC-257 melanoma and with SK-OV-3 ovarian was above 100 µM each time.

As for `COC(=O)C(C(=O)OC)C1CCCC(=O)C1` (stereo not given), the TGI in the experiment on DLD-1 colon, in the experiment on MALME-3M melanoma, in the experiment with OVCAR-4 ovarian, in the experiment on HL-60(TB) leukemia, in the experiment with SK-MEL-28 melanoma and in the experiment on OVCAR-8 ovarian was above 100 µM throughout. In addition, the TGI with LXFL 529 NSCLC, in the experiment with UACC-257 melanoma and in the experiment on SK-OV-3 ovarian was above 100 µM each time.

Take `O=C(O)CCC(N=Cc1nc(-c2ccccc2)oc1O)C(=O)O` (stereo not given): the TGI in the experiment with DLD-1 colon, with MALME-3M melanoma, in the experiment with OVCAR-4 ovarian, in the experiment with SK-MEL-28 melanoma, in the experiment with OVCAR-8 ovarian and in the experiment on LXFL 529 NSCLC was above 100 µM in each case. In addition, the TGI in the experiment with UACC-257 melanoma and in the experiment with SK-OV-3 ovarian was above 100 µM in each case.

As for `C[C@]12CC/C(=N\O)C=C1CC[C@@H]1C2CC[C@@]2(C)C1CC[C@@H]2OC1CCCCO1` (stereo not given in full), the TGI in the experiment on DLD-1 colon was above 100 µM; in the experiment with MALME-3M melanoma it was 41.4 µM; in the experiment with OVCAR-4 ovarian it was 31.9 µM; with SK-MEL-28 melanoma, 42.4 µM; in the experiment on OVCAR-8 ovarian it was above 100 µM; in the experiment on LXFL 529 NSCLC, 31.8 µM. The TGI with UACC-257 melanoma amounted to 34.6 µM; in the experiment with SK-OV-3 ovarian, 36.3 µM.

In the case of `O=c1c(Br)cc2nc3ccccc3sc-2c1Br`, the TGI in the experiment with DLD-1 colon was above 100 µM; in the experiment with MALME-3M melanoma, above 100 µM; with OVCAR-4 ovarian it was above 70.9 µM; in the experiment with HL-60(TB) leukemia, 38.9 µM; in the experiment with SK-MEL-28 melanoma, above 100 µM; in the experiment with OVCAR-8 ovarian, 41.4 µM. The TGI with LXFL 529 NSCLC is above 100 µM; in the experiment on UACC-257 melanoma, above 85.4 µM; with SK-OV-3 ovarian it was above 100 µM.

As to `O=c1ncc(F)cn1C1OC(CO)C(O)C1O` (stereo not given), the TGI is above 100 µM in the experiment with DLD-1 colon; above 51.5 µM in the experiment with MALME-3M melanoma; above 100 µM in the experiment with OVCAR-4 ovarian; above 52 µM with HL-60(TB) leukemia; above 46.4 µM in the experiment on SK-MEL-28 melanoma; above 100 µM in the experiment on OVCAR-8 ovarian. Moreover, the TGI is above 43.8 µM in the experiment with LXFL 529 NSCLC, above 55.3 µM in the experiment on UACC-257 melanoma and above 100 µM in the experiment with SK-OV-3 ovarian.

Turning to `CC(=O)OC[C@@H](COC(=O)/C=C/c1ccc(O)cc1)OC1OC(CO)C(O)C(O)C1O` (stereo not given in full), the TGI with DLD-1 colon, in the experiment with MALME-3M melanoma, in the experiment with OVCAR-4 ovarian, with HL-60(TB) leukemia, in the experiment with SK-MEL-28 melanoma and with OVCAR-8 ovarian was above 100 µM each time. The TGI with LXFL 529 NSCLC, in the experiment on UACC-257 melanoma and with SK-OV-3 ovarian was above 100 µM in each case.

Take `CCOC(=O)N1CCC(=O)C(CNC23CC4CC(CC(C4)C2)C3)C1` (stereo not given): the TGI in the experiment with DLD-1 colon is 46.4 µM; with MALME-3M melanoma, 37.7 µM; in the experiment on OVCAR-4 ovarian, 29 µM; in the experiment on HL-60(TB) leukemia it was above 100 µM; in the experiment with SK-MEL-28 melanoma it was 32.1 µM; in the experiment on OVCAR-8 ovarian it was 44.5 µM. The TGI in the experiment on LXFL 529 NSCLC was 33.3 µM; with UACC-257 melanoma, 42.4 µM; in the experiment with SK-OV-3 ovarian, above 100 µM.

With `COC(=O)C(C(=O)C(=O)Nc1ccc([N+](=O)[O-])cc1[N+](=O)[O-])c1nc2ccc(Cl)cc2[nH]c1=O` (stereo not given), the TGI in the experiment on DLD-1 colon, in the experiment on MALME-3M melanoma, with OVCAR-4 ovarian, with HL-60(TB) leukemia, in the experiment with SK-MEL-28 melanoma and in the experiment on OVCAR-8 ovarian was above 100 µM in each case. The TGI in the experiment with UACC-257 melanoma and with SK-OV-3 ovarian was above 100 µM each time.

In the case of `CC(C)([NH-])CO.CC(C)([NH-])CO.[Cl][Cd][Cl]`, the GI50 in the experiment on MALME-3M melanoma is 8.6 µM; with OVCAR-4 ovarian, 12.4 µM; with HL-60(TB) leukemia it was 26.9 µM; in the experiment on SK-MEL-28 melanoma it was 16.5 µM; in the experiment with OVCAR-8 ovarian, 52.8 µM; with LXFL 529 NSCLC it was 15 µM. The GI50 in the experiment on UACC-257 melanoma was above 100 µM. In addition, the TGI in the experiment with MALME-3M melanoma is 22.4 µM; in the experiment on OVCAR-4 ovarian, 25.8 µM; with HL-60(TB) leukemia, 55.8 µM; in the experiment with SK-MEL-28 melanoma it was 30.1 µM; in the experiment on OVCAR-8 ovarian, above 100 µM; in the experiment with LXFL 529 NSCLC, 29.3 µM. In the experiment with UACC-257 melanoma, this molecule returned a TGI above 100 µM.

On to `Cc1nnc(-c2cccc(-c3ccc(C(=O)NCC4CC4)cc3)c2)o1`, for which the GI50 was above 25 µM in the experiment on MALME-3M melanoma; above 25 µM in the experiment on OVCAR-4 ovarian; above 16.9 µM in the experiment with T-47D breast; above 25 µM in the experiment with HL-60(TB) leukemia; above 25 µM in the experiment on SK-MEL-28 melanoma; above 25 µM in the experiment with OVCAR-8 ovarian. For the same molecule, the GI50 in the experiment with UACC-257 melanoma and with SK-OV-3 ovarian was above 25 µM in each case. The TGI with MALME-3M melanoma, in the experiment with OVCAR-4 ovarian, in the experiment on T-47D breast, with HL-60(TB) leukemia, with SK-MEL-28 melanoma and in the experiment with OVCAR-8 ovarian was above 25 µM each time. Also, the TGI with UACC-257 melanoma and with SK-OV-3 ovarian was above 25 µM in each case.
